Some test systems named below: HOP-92 NSCLC; SNB-75 CNS; MDA-MB-435; HCT-116 colon; MCF7 breast; COLO 205 colon; BT-549 breast; MALME-3M melanoma; SK-MEL-2 melanoma; M14 melanoma.
Holding throughout (experiment): growth of human tumour cells (NCI), 48 h

The structures appear in SMILES notation.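 Tested at 5 concentrations; 48 h exposure; 96-well plates; endpoints linearly interpolated, else capped at highest concentration. Abbreviation: GI50, concentration required for 50% inhibition of growth. At the TGI there is no net growth.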

For `COc1cc(/C=C/C(=O)/C=C/c2cc3ccc(Cl)cc3n(Cc3ccccc3)c2=O)ccc1O`, the GI50 in the assay with HOP-92 NSCLC is 2.21 µM; with SNB-75 CNS it was 2.52 µM; in the assay on MDA-MB-435, 0.862 µM; in the assay with HCT-116 colon it was 0.768 µM; with MCF7 breast it was 0.418 µM; in the assay with COLO 205 colon it was 1.97 µM. Further, the GI50 with BT-549 breast was 1.69 µM; in the assay with MALME-3M melanoma, 1.94 µM; in the assay on SK-MEL-2 melanoma, 1.92 µM; in the assay on M14 melanoma, 1.83 µM. For the same molecule, the TGI in the assay with HOP-92 NSCLC came to 5.44 µM; with SNB-75 CNS it was 7.42 µM; in the assay with MDA-MB-435 it was 4.32 µM; with HCT-116 colon, 2.15 µM; with MCF7 breast, 12.3 µM; in the assay on COLO 205 colon, 6.25 µM. Moreover, the TGI with BT-549 breast came to 4.53 µM; with MALME-3M melanoma, 4.64 µM; in the assay on SK-MEL-2 melanoma, 4.97 µM; in the assay with M14 melanoma, 4.67 µM.

As to `COc1ccccc1/C=C/C1=C(C)CCC(c2ccccc2OC)C1C` (stereo not given), the GI50 in the assay with HOP-92 NSCLC was 0.632 µM; in the assay with SNB-75 CNS it was 0.131 µM; with MDA-MB-435 it was 0.0595 µM; with HCT-116 colon it was 0.108 µM; in the assay on MCF7 breast, 0.0633 µM; in the assay on COLO 205 colon, 0.21 µM. Further, the GI50 in the assay with BT-549 breast was 0.27 µM; with MALME-3M melanoma, 11.9 µM; with SK-MEL-2 melanoma, 0.224 µM; in the assay on M14 melanoma, 0.16 µM. The TGI was over 100 µM in the assay on HOP-92 NSCLC; 76.5 µM with SNB-75 CNS; 0.154 µM in the assay on MDA-MB-435; 3.14 µM with HCT-116 colon; 1.28 µM in the assay with MCF7 breast; 0.498 µM with COLO 205 colon. Moreover, the TGI in the assay on BT-549 breast was 1.73 µM; with MALME-3M melanoma, over 100 µM; in the assay with SK-MEL-2 melanoma, over 100 µM; in the assay with M14 melanoma, 0.655 µM.

`Cc1nc(-c2cnc(NC(C)C)n(C)c2=O)ccc1Oc1ccnc(-c2cnn(C)c2)c1`: the GI50 with HOP-92 NSCLC was 7.44 µM; with SNB-75 CNS, 12.3 µM; in the assay on MDA-MB-435, 2.98 µM; with HCT-116 colon, 4.67 µM; in the assay on MCF7 breast, 5.07 µM; in the assay with COLO 205 colon, 10.6 µM. In addition, the GI50 in the assay with BT-549 breast was 12.7 µM; in the assay on MALME-3M melanoma, 12.6 µM; with SK-MEL-2 melanoma it was 12 µM; in the assay with M14 melanoma, 5.72 µM. In addition, the TGI in the assay on HOP-92 NSCLC is 53.1 µM; in the assay on SNB-75 CNS, 47.7 µM; in the assay on MDA-MB-435 it was 18.2 µM; with HCT-116 colon it was over 100 µM; in the assay with MCF7 breast, over 100 µM; in the assay on COLO 205 colon, 80.7 µM. The TGI was found to be 70 µM with BT-549 breast, 68.8 µM with MALME-3M melanoma, 52.8 µM with SK-MEL-2 melanoma and 33.4 µM with M14 melanoma.

For `O=C1c2cccnc2C(=O)c2c1c(C(=O)NCCn1ccnc1)c1ccccn21`, the GI50 is 9.28 µM in the assay on HOP-92 NSCLC; 3.24 µM with SNB-75 CNS; 1.71 µM in the assay with MDA-MB-435; 3.18 µM in the assay with HCT-116 colon; 1.19 µM with MCF7 breast; 1.48 µM with COLO 205 colon. The GI50 was 5.14 µM in the assay on BT-549 breast, 0.722 µM with MALME-3M melanoma, 2.82 µM in the assay with SK-MEL-2 melanoma and 1.91 µM in the assay on M14 melanoma. Moreover, the TGI in the assay on HOP-92 NSCLC turned out to be 31.7 µM; in the assay on SNB-75 CNS, 16.8 µM; with MDA-MB-435, 3.13 µM; with HCT-116 colon it was 9.58 µM; in the assay on MCF7 breast, 3.37 µM; in the assay on COLO 205 colon it was 3.17 µM. Further, the TGI in the assay with BT-549 breast worked out at 16.9 µM; in the assay on MALME-3M melanoma, 2.14 µM; in the assay with SK-MEL-2 melanoma, 8.3 µM; with M14 melanoma, 6.13 µM.

In the case of `COc1cccc(C2=C(c3cn(C)c4cc(F)ccc34)C(=O)NC2=O)c1`, the GI50 is over 25 µM with HOP-92 NSCLC; 2.42 µM with SNB-75 CNS; 11.7 µM with MDA-MB-435; 8.59 µM in the assay with HCT-116 colon; 7.56 µM in the assay with MCF7 breast; 10.9 µM in the assay with COLO 205 colon. The GI50 was over 24 µM in the assay with BT-549 breast, over 18 µM in the assay with MALME-3M melanoma, over 19.4 µM with SK-MEL-2 melanoma and 24.6 µM in the assay on M14 melanoma. The TGI in the assay on HOP-92 NSCLC, in the assay on SNB-75 CNS, in the assay on MDA-MB-435, with HCT-116 colon, with MCF7 breast and in the assay with COLO 205 colon was over 25 µM throughout. For the same molecule, the TGI in the assay with BT-549 breast, with MALME-3M melanoma, with SK-MEL-2 melanoma and with M14 melanoma was over 25 µM in each case.

As for `Cc1ccc(-c2nc3cc(Cl)c(Cl)cc3nc2C#N)cc1`, the GI50 was 40.5 µM in the assay with HOP-92 NSCLC; over 100 µM in the assay with SNB-75 CNS; over 100 µM with MDA-MB-435; 90.3 µM with HCT-116 colon; over 100 µM with MCF7 breast; over 100 µM with COLO 205 colon. In addition, the GI50 with BT-549 breast is over 100 µM; in the assay with MALME-3M melanoma, 92.7 µM; in the assay on SK-MEL-2 melanoma, over 100 µM; in the assay on M14 melanoma it was over 100 µM. For the same molecule, the TGI with HOP-92 NSCLC, in the assay with SNB-75 CNS, in the assay with MDA-MB-435, with HCT-116 colon, with MCF7 breast and in the assay with COLO 205 colon was over 100 µM in each case. Besides, the TGI in the assay on BT-549 breast, in the assay on MALME-3M melanoma, in the assay on SK-MEL-2 melanoma and in the assay with M14 melanoma was over 100 µM each time.

Consider `OCc1ccc(N2CCc3cc(F)ccc3C2)cc1Cl`, for which the GI50 in the assay on HOP-92 NSCLC was 0.199 µM; in the assay on SNB-75 CNS, 15.1 µM; in the assay with MDA-MB-435 it was 13.1 µM; in the assay on HCT-116 colon, under 0.0166 µM; in the assay with MCF7 breast it was 0.0771 µM; in the assay on COLO 205 colon, 0.0828 µM. In addition, the GI50 in the assay on BT-549 breast was 15.1 µM; with MALME-3M melanoma, 16.6 µM; with SK-MEL-2 melanoma it was 0.375 µM; with M14 melanoma, 16.2 µM. Also, the TGI in the assay on HOP-92 NSCLC was 6.36 µM; with SNB-75 CNS, 28.6 µM; with MDA-MB-435 it was 27.6 µM; in the assay with HCT-116 colon it was 11.2 µM; in the assay with MCF7 breast it was 13.3 µM; in the assay with COLO 205 colon, 0.353 µM. In addition, the TGI with BT-549 breast was determined as 28.7 µM; in the assay with MALME-3M melanoma, 31.8 µM; in the assay with SK-MEL-2 melanoma, 17.8 µM; in the assay on M14 melanoma it was 30.7 µM.
